Here are results for eight molecules from ChEMBL document CHEMBL1201862, “PubChem BioAssay data set” (2004).

Usually GI50 stands for the concentration that inhibits growth by half.

Common to all, as to experiment: DTP human tumour cell line panel, 48 h
Assay [1] relates to SW-620.
The test system of assay [2] is DU-145.
Assay [3] relates to MOLT-4.
The subject of assay [4] is NCI-H23.
For assay [5], the system named is NCI-H226.
The test system of assay [6] is ACHN.
The subject of assay [7] is UACC-257.
Assay [8] concerns OVCAR-5.
For assay [9], the system named is SN12C.
Assay [10] concerns M14.
Assay [11] deals with NCI-H522.
The test system of assay [12] is RPMI-8226.
Assay [13] relates to CAKI-1.
Assay [14] concerns LOX IMVI.
The test system of assay [15] is KM12.
In assay [16] the test system is A549.
Assay [17] relates to NCI/ADR-RES.
For assay [18], the system named is IGROV-1.
In assay [19] the test system is U-251.

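Protocol summary: plate cells (96-well), add compound at 5 concentrations, incubate 48 h, interpolate endpoints linearly. GI50: concentration for 50% inhibition of growth.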 The source made the active and inactive calls. Rule as the data show it: active = GI50 up to about 1.1 µM and inactive = higher.

In the case of `Cc1cccc(-c2cc(O)c3c(C)cc(C)nc3n2)c1`, the GI50 in assay [1] was 0.792 µM (active); in assay [2] it was 4.32 µM (inactive); in assay [3], 5.06 µM (inactive); in assay [4] it was 3.65 µM (inactive); in assay [5], 3.59 µM (inactive); in assay [6], 8.3 µM (inactive). The GI50 in assay [7] was 7.87 µM (inactive); in assay [8], 5.15 µM (inactive); in [9] it was 8.91 µM (inactive); in assay [10], 2.29 µM (inactive); in assay [11] it was 0.658 µM (active); in assay [12], 4.07 µM (inactive). For the same molecule, the GI50 in [13] was 5.66 µM (inactive); in assay [14], 4.82 µM (inactive); in assay [15] it was 0.745 µM (active); in assay [16], 3.66 µM (inactive); in [17], 1.65 µM (inactive); in assay [18], 4.06 µM (inactive). For the same molecule, the GI50 in assay [19] was 2.79 µM (inactive).

`COc1ccc(N(CN2C(=O)CCC2OC)C(C)=O)cc1` (configuration not stated): the GI50 in [1], in [2], in [3], in assay [4], in assay [5] and in assay [6] was > 100 µM (inactive) in each case. The GI50 in assay [7], in assay [8], in [9], in assay [10], in [11] and in assay [12] was > 100 µM (inactive) in each case. For the same molecule, the GI50 in [13], in [14], in assay [15], in assay [16], in [17] and in assay [18] was > 100 µM (inactive) each time. Besides, the GI50 in [19] is > 100 µM (inactive).

As for `COc1ccc(-c2c(CN3CCOCC3)sc3nc4ccccc4n23)cc1`, the GI50 is 12.2 µM (inactive) in assay [1]; 28.2 µM (inactive) in assay [2]; 10.3 µM (inactive) in assay [3]; 27.4 µM (inactive) in assay [4]; 42.1 µM (inactive) in assay [5]; 36.6 µM (inactive) in assay [6]. The GI50 was > 72.1 µM (inactive) in [7]; 32.3 µM (inactive) in assay [8]; 33.4 µM (inactive) in [9]; 7.53 µM (inactive) in [10]; 2.58 µM (inactive) in assay [11]; 5.51 µM (inactive) in assay [12]. The GI50 in assay [13] was 28.5 µM (inactive); in assay [14], 18.5 µM (inactive); in assay [15], 9.48 µM (inactive); in [16] it was 22.2 µM (inactive); in [17], 4.92 µM (inactive); in assay [18], 8.09 µM (inactive). The GI50 in assay [19] is 16.1 µM (inactive).

With `CC(C)(C)c1cc(C2=NNC(c3ccccc3)C2)cc(C(C)(C)C)c1O` (configuration not stated), the GI50 in assay [1] was 15.7 µM (inactive); in assay [2], 15.5 µM (inactive); in assay [3], 16.6 µM (inactive); in [4], 17.2 µM (inactive); in [5] it was 17.2 µM (inactive); in assay [6] it was 16.3 µM (inactive). Also, the GI50 was 14.3 µM (inactive) in [7]; 21.1 µM (inactive) in assay [8]; 16.6 µM (inactive) in assay [9]; 17.2 µM (inactive) in assay [10]; 14.7 µM (inactive) in assay [11]; 15 µM (inactive) in assay [12]. Further, the GI50 is 12.9 µM (inactive) in assay [13]; 15.9 µM (inactive) in assay [14]; 13.6 µM (inactive) in [15]; 15.3 µM (inactive) in assay [16]; 17 µM (inactive) in [17]; 15.7 µM (inactive) in [18]. Further, the GI50 in [19] is 15.5 µM (inactive).

On to `O=P1(c2ccccc2)C(c2ccccc2)=CC=C1c1ccccc1`, for which the GI50 in assay [1] was 26.1 µM (inactive); in assay [2], 41.8 µM (inactive); in [3], 6.65 µM (inactive); in assay [4], 21.5 µM (inactive); in assay [5] it was 26.4 µM (inactive); in assay [6], 28 µM (inactive). For the same molecule, the GI50 was 22.5 µM (inactive) in [7]; 20.9 µM (inactive) in assay [8]; 39.2 µM (inactive) in [9]; 18.4 µM (inactive) in [10]; 20 µM (inactive) in assay [11]; 3.31 µM (inactive) in assay [12]. The GI50 is 50.7 µM (inactive) in assay [13]; 10.4 µM (inactive) in assay [14]; 16.7 µM (inactive) in [15]; 22.6 µM (inactive) in [16]; 30.7 µM (inactive) in assay [17]; 39.8 µM (inactive) in [18]. Further, the GI50 in assay [19] is 13.3 µM (inactive).

As for `OC(/C(=N/c1ccccc1)c1ccccc1)c1ccccc1` (configuration not stated), the GI50 in assay [1] is 10.5 µM (inactive); in assay [2] it was 5.35 µM (inactive); in [3] it was 6.62 µM (inactive); in [4] it was 4.4 µM (inactive); in assay [5], 10.8 µM (inactive); in [6], 14.4 µM (inactive). Besides, the GI50 in [7] is 2.17 µM (inactive); in assay [8], 23.1 µM (inactive); in assay [9], 10.7 µM (inactive); in [10], 4.8 µM (inactive); in assay [11], 4.35 µM (inactive); in [12], 4.49 µM (inactive). For the same molecule, the GI50 in assay [13] is 11.9 µM (inactive); in [14], 12.4 µM (inactive); in assay [15] it was 2.72 µM (inactive); in assay [16], 11.3 µM (inactive); in [17], 23.5 µM (inactive); in assay [18], 9.46 µM (inactive). Also, in [19], the GI50 was 4.1 µM (inactive).

As to `Nc1c(C(=O)c2ccc(Cl)cc2)[nH]c(NCc2ccccc2)c1C(=S)Nc1ccccc1`, the GI50 in [1] is 1.88 µM (inactive); in assay [2], 3.44 µM (inactive); in assay [3] it was 2.58 µM (inactive); in assay [4], 2.39 µM (inactive); in assay [5], 7.91 µM (inactive); in [6], 2.28 µM (inactive). The GI50 in assay [7] is 1.67 µM (inactive); in assay [8], 3 µM (inactive); in [9], 4.89 µM (inactive); in assay [10] it was 1.96 µM (inactive); in assay [11], 1.82 µM (inactive); in assay [12], 1.79 µM (inactive). Besides, the GI50 in assay [13] is 5.2 µM (inactive); in [14], 1.8 µM (inactive); in assay [15] it was 1.67 µM (inactive); in assay [16], 2.18 µM (inactive); in assay [17], 7.83 µM (inactive); in assay [18] it was 2.37 µM (inactive). Besides, the GI50 in assay [19] was 1.72 µM (inactive).

For `c1cc2nnc1SCCSCCSc1ccc(nn1)SCCSCCS2`, the GI50 in assay [1], in [2], in [3], in [4], in assay [5] and in assay [6] was > 100 µM (inactive) throughout. The GI50 in assay [7], in [8], in assay [9], in assay [10], in assay [11] and in assay [12] was > 100 µM (inactive) each time. In addition, the GI50 in assay [13], in [14], in assay [15], in assay [16], in [17] and in assay [18] was > 100 µM (inactive) in each case. For the same molecule, the GI50 in assay [19] is > 100 µM (inactive).
